In US12077501B2, “Compounds and compositions for intracellular delivery of agents” (ModernaTX, Inc., priority 2017, dated 2024):

Key:
[1] = tested on: hEPO expression; test: Expression of hEPO in rats induced by nanoparticle compositions; type: in vivo, S.D. rats; settings: rats, 3, 6 and 24 hours
Experimental: Formulations were administered intravenously, subcutaneously or intramuscularly to rats (n=3 or 6) at a dosage of 0.2 mg/kg or 0.5 mg/kg (mpk) and hEPO levels measured at 3, 6, and 24 hour time points. After the 48 hour time point, livers and spleens were harvested and frozen.
(§1) In contrast, hEPO expression in rats induced by administration of a nanoparticle composition including a compound according to one of formulae (I), (Ia1)-(Ia6), (Ib), (II), (IIa), (III), and (IIIa) was substantially […] than that measured for MC3. […] Tables 7c and 7d show additional protein expressions and clearance data from compositions with various compounds disclosed herein as compared to with MC3. Tables 7e, 7f and 7g show hEPO expression data in CD-1 mice at a dose of 0.5 mpk.

[2] = Purity at start and after storage for 65 h at 25 °C or 37 °C; type: physicochemical
[3] = Particle size and polydispersity index of nanoparticle compositions (Zetasizer Nano ZS); type: physicochemical
Experimental: A Zetasizer Nano ZS (Malvem Instruments Ltd, Malvem, Worcestershire, UK) can be used to determine the particle size, the polydispersity index (PDI) and the zeta potential of the nanoparticle compositions in 1×PBS in determining particle size and 15 mM PBS in determining zeta potential.

[4] = tested on: hEPO expression; test: hEPO (miR126 + miR142) mRNA expression, Tables 8b-8e; type: in vivo
[5] = Encapsulation efficiency of RNA (QUANT-IT RIBOGREEN RNA assay); type: physicochemical
How it was run: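 Samples diluted to about 5 μg/mL RNA in TE buffer pH 7.5, treated with buffer or 2% Triton X-100 for 15 min at 37° C, then stained with RiboGreen (1:100). Fluorescence at about 480/520 nm, blank-subtracted; free RNA fraction is intact over Triton-disrupted signal.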

[6] = Lipid clearance: % dose remaining, Tables 7c and 8b-8e (species not given); type: in vivo
Excerpt: as §1

[7] = tested on: hepatocytes and Kupffer cells; test: Mouse liver immunohistochemistry (IHC) with GFP mRNA (FIGS. 11A, 11B); type: in vivo; settings: CD-1 mouse liver, 6h after intravenous administration, 0.5 mpk (FIG. 11A)
Excerpt: FIGS. 11A and 11B are a pair of images comparing the results of a mouse liver immunohistochemistry (IHC) using mRNA expressing green fluorescent protein (GFP) after administration of nanoparticle compositions containing Compound 4 and MC3.

[8] = Lipid clearance: % dose remaining in liver of CD-1 mice; type: in vivo; settings: intravenous, 0.5 mg/kg, CD-1 mouse, Table 8a
How it was run: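 Nanoparticle compositions of the disclosed lipids given intravenously and benchmarked against MC3. Protein expression reported as AUC (p/s*h) and clearance as % dose remaining in liver of CD-1 mice; hEPO expression in CD-1 mice measured at 0.5 mpk.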

[9] = tested on: hEPO expression; test: hEPO expression in CD-1 mice compared with MC3; type: in vivo
How it was run: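 Nanoparticle compositions containing the test compound were dosed to CD-1 mice at 0.5 mpk, and hEPO expression was measured. Clearance data were collected from the same compositions.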

[10] = Table 1f, Formulated with lipid:Chol:DOPE:PEG 1 40:38.5:20:1.5
[11] = Table 1e, row marked #: Formulated with lipid:Chol:PEG 1 50:47.5:2.5
[12] = Table 1f, row marked #: Formulated with lipid:Chol:PEG 1 50:47.5:2.5
[13] = Table 1d, row marked #: Formulated with lipid:Chol:PEG 1 50:47.5:2.5

PDI [3, 10]	Size (nm) [3, 10]	EE (%) [5, 10]	% Dose Remaining (liver, 24 h) ([6]; Table 8d)	SMILES	AUC ([4]; Table 8d)	also measured
0.21	111.5 nm	98.2%	49.08%	CCCCCCCCCOC(=O)CCCCCCCN(CCCCCCCC(=O)OC(CCCCCCCC)CCCCCCCC)CCCCC(=O)OC(C)C(C)OC(=O)CCCCN(CCCCCCCC(=O)OCCCCCCCCC)CCCCCCCC(=O)OC(CCCCCCCC)CCCCCCCC (stereo not drawn) [Compound 186, Di(heptadecan-9-yl) 8,8′-(26,27-dimethyl-11,24,29,42-tetraoxo-10,25,28,43-tetraoxa-19,34-diazadopentacontane-19,34-diyl)dioctanoate]	2.19e+07 pg·h/mL	
0.20	126.0 nm	98.5%	42.86%	CCCCCCCCCOC(=O)CCCCCCCN(CCCCCCCC(=O)OC(CCCCCCCC)CCCCCCCC)CCCCC(=O)OC(C)CC(C)OC(=O)CCCCN(CCCCCCCC(=O)OCCCCCCCCC)CCCCCCCC(=O)OC(CCCCCCCC)CCCCCCCC (stereo not drawn) [Compound 187, Di(heptadecan-9-yl) 8,8′-(26,28-dimethyl-11,24,30,43-tetraoxo-10,25,29,44-tetraoxa-19,35-diazatripentacontane-19,35-diyl)dioctanoate]	5.22e+07 pg·h/mL	
0.12	78.0 nm	97.5%	117.31%	CCCCCCCCCN(CCCCCCCCC)CCN(CCCCCCCCC)CC(=O)OC(C)C(C)OC(=O)CN(CCCCCCCCC)CCCCCCCCC (stereo not drawn) [Compound 188, 3-((N-(2-(dinonylamino)ethyl)-N-nonylglycyl)oxy)butan-2-yl dinonylglycinate]	8.76e+06 pg·h/mL	
0.16	70.1 nm	98.3%	91.63%	CCCCCCCCCN(CCCCCCCCC)CCN(CCCCCCCCC)CC(=O)OC(C)CC(C)OC(=O)CN(CCCCCCCCC)CCCCCCCCC (stereo not drawn) [Compound 189, 4-((N-(2-(Dinonylamino)ethyl)-N-nonylglycyl)oxy)pentan-2-yl dinonylglycinate]	1.15e+07 pg·h/mL	
			54.04%	CCCCCC=CCC=CCCCCCCCCC(CCCCCCCCC=CCC=CCCCCC)OC(=O)CCCN(C)C (stereo not drawn) [MC3, heptatriaconta-6,9,28,31-tetraen-19-yl 4-(dimethylamino)butanoate, reference compound]	6.95e+08 pg·h/mL	PDI [3, 11]: 0.22; Size (nm) [3, 11]: 109.0 nm; PDI [3, 12]: 0.26; Size (nm) [3, 12]: 129.7 nm; PDI [3, 13]: 0.20; Size (nm) [3, 13]: 105.0 nm; GFP protein expression in liver cell types (IHC) [7]: observed in both hepatocytes and Kupffer cells; AUC ([4]; Table 8c): 1.52e+07 pg·h/mL; AUC (mIU/mL*h) ([4]; lipid:Chol:PEG 1 50:47.5:2.5, Table 8e): 2.24E+07 mIU/mL*h; hEPO expression at each time point, rank among compositions of Table 6 [1]: highest hEPO expression; % Dose Remaining 24 hr [8]: 64.65%; EE (%) [5, 11]: 93.0%; EE (%) [5, 12]: 92.5%; EE (%) [5, 13]: 84.1%; % Dose Remaining (liver, 24 h) ([6]; Table 8c): 58.41%; AUC (p/s*h) CD-1 mice 0.5 mpk ([9]; intramuscular, title: 0.01 mg/kg, Table 7f): 27727 p/s*h; AUC (p/s*h) CD-1 mice 0.5 mpk ([9]; subcutaneous, 0.5 mg/kg, Table 7g): 375994 p/s*h

Continued, compound first:

SMILES	PDI [3, 10]	Size (nm) [3, 10]	EE (%) [5, 10]	% Dose Remaining (liver, 24 h) ([6]; Table 8d)	AUC ([4]; Table 8d)	also measured
CCCCCCCCCCCCN(CCCCCCCCCCCC)CCN(CCCCCCCCCCCC)CCN1CCN(CCN(CCCCCCCCCCCC(=O)OC)CCCCCCCCCCCC(=O)OC)CC1 [Compound 16, Dimethyl 12,12′-((2-(4-(2-((2-(didodecylamino)ethyl)(dodecyl)amino)ethyl)piperazin-1-yl)ethyl)azanediyl)didodecanoate]						hEPO expression at each time point, rank among compositions of Table 6 [1]: lowest hEPO expression
CCCCCCCCCN(CCCCCCCCC)CCN(CCCCCCCCC)CC(=O)N1CCN(C(=O)CN(CCCCCCCCC)CCCCCCCC(=O)OC)CC1 [Compound 44, Methyl 8-((2-(4-(N-(2-(dinonylamino)ethyl)-N-nonylglycyl)piperazin-1-yl)-2-oxoethyl)(nonyl)amino)octanoate]						Purity % 25° C. no shaking t = 65 h ([2]; after storage for 65 h at 25° C., no shaking): 92%; Purity % 37° C. shaking t = 65 h ([2]; after storage for 65 h at 37° C., shaking): 91%; Purity % t = 0 h ([2]; beginning of the study, 25° C.): 90%
CCCCCCCCCOC(=O)CCCCCCCN(CCCCCCCC(=O)OC(CCCCCCCC)CCCCCCCC)CCCCC(=O)N(C)CCCN(C)C(=O)CCCCN(CCCCCCCC(=O)OCCCCCCCCC)CCCCCCCC(=O)OC(CCCCCCCC)CCCCCCCC [Compound 182, Di(heptadecan-9-yl) 15,19-dimethyl-9,25-bis(8-(nonyloxy)-8-oxooctyl)-14,20-dioxo-9,15,19,25-tetraazatritriacontanedioate]	0.28	97.7 nm	98.8%	1.64%	6.06e+07 pg·h/mL	
CCCCCCCCCOC(=O)CCCCCCCN(CCCCCCCC(=O)OC(CCCCCCCC)CCCCCCCC)CCCCC(=O)N(C)CCN(C)C(=O)CCCCN(CCCCCCCC(=O)OCCCCCCCCC)CCCCCCCC(=O)OC(CCCCCCCC)CCCCCCCC [Compound 183, Di(heptadecan-9-yl) 15,18-dimethyl-9,24-bis(8-(nonyloxy)-8-oxooctyl)-14,19-dioxo-9,15,18,24-tetraazadotriacontanedioate]	Multimodal	128.9 nm	99.1%	1.87%	6.53e+07 pg·h/mL	
CCCCCCCCCOC(=O)CCCCCCCN(CCCCCCCC(=O)OC(CCCCCCCC)CCCCCCCC)CCCCC(=O)N1CCN(C(=O)CCCCN(CCCCCCCC(=O)OCCCCCCCCC)CCCCCCCC(=O)OC(CCCCCCCC)CCCCCCCC)CC1 [Compound 184, Di(heptadecan-9-yl) 8,8′-((piperazine-1,4-diylbis(5-oxopentane-5,1-diyl))bis((8-(nonyloxy)-8-oxooctyl)azanediyl))dioctanoate]	Multimodal	107.6 nm	99.1%	2.23%	4.21e+08 pg·h/mL	
CCCCCCCCCOC(=O)CCCCCCCN(CCCCCCCC(=O)OC(CCCCCCCC)CCCCCCCC)CCCCC(=O)OCCOC(=O)CCCCN(CCCCCCCC(=O)OCCCCCCCCC)CCCCCCCC(=O)OC(CCCCCCCC)CCCCCCCC [Compound 185, Di(heptadecan-9-yl) 8,8′-(11,24,29,42-tetraoxo-10,25,28,43-tetraoxa-19,34-diazadopentacontane-19,34-diyl)dioctanoate]	0.27	98.4 nm	98.6%	18.21%	2.23e+07 pg·h/mL	
